In US10639319B2, “Human milk oligosaccharides for preventing injury and/or promoting healing of the gastrointestinal tract” (ABBOTT LABORATORIES, priority 2011, dated 2020):

Test system: infant fecal bacteria
Experiment: In vitro substrate fermentation model with infant fecal inocula, isobutyrate (BCFA) analysis (Example 78)
Type: cell-based
Details: for greater concentration of isobutyrate than any of the other substrates: infant fecal inoculum cultures, P<0.05

In the case of 2′-α-L-Fucopyranosyl-D-Lactose [2′-FL], the “fermentation by infant fecal bacteria” value (in vitro fermentation model) is reported as “readily fermented”, the “production of isobutyrate as compared to other substrates” value (in vitro fermentation model) is reported as “enhances” and the “greater concentration of isobutyrate than any of the other substrates” value (6 hours) is reported as “approximately 5 fold”. The “greater concentration of isobutyrate than any of the other substrates” value (12 hours) was roughly 10 fold.
